# Assay results as given in patent US20260248799A1, “COMBINATIONS OF RETINALDEHYDE DEHYDROGENASE 1 (RALDH1) INHIBITORS AND IMMUNOSTIMULATORS AND METHODS USING SAME” (The Trustees of the University of Pennsylvania, priority 2023, published 2026).
# What was measured:
# Huh7 tumors = Huh7 tumors in NU/J mice; assay type: in vivo, mouse; details: Huh7
# Procedure: FIGS. 26A-26H: Raldh1-INH suppresses HCC growth by altering macrophage functions. FIG. 26A: Huh7 tumor-bearing NU/J mice were treated with C86 (i.p, 10 mg/kg) every day starting when tumor size was approximately 50 mm^3. Tumor volume was measured every 2 days. […] Three or more independent experiments were performed with at least three replicates per experimental group. Unpaired t test, two-tailed. FIG. 26B: AldeRed assay at endpoint on Huh7 tumor treated as described in FIG. 26A. […] Three or more independent experiments were performed with at least three replicates per experimental group. Unpaired t test, two-tailed. FIG. 26C: Huh7 tumor-bearing nude mice were treated with different dose of C86 every day. Tumor volume was measured every 2-3 days. […] Two independent experiments were performed with at least three replicates per experimental group. Unpaired t test, two-tailed. FIG. 26D: Body weight measured every 3-5 days for the experiment outlined in FIG. 26C. FIG. 26E: Parental Huh7 or RALDH1-KO Huh7 cells were implanted subcutaneously into NU/J mice and treated with C86 (i.p, 10 mg/kg) or vehicle (control) every day. […] Three or more independent experiments were performed with at least three replicates per experimental group. Unpaired t test, two-tailed. FIG. 26F: Huh7 tumor-bearing NU/J mice were treated with clodronate liposomes (CloLipo) and/or C86. […] Two independent experiments were performed with at least three replicates per experimental group. Unpaired t test, two-tailed. FIG. 26G: Murine Hepa 1-6 tumors were implanted subcutaneously into C57BL6/J WT mice or LyMCre:RosadnRAR mice. Expression of the dominant negative RAR in myeloid cells slows tumor growth. Two independent experiments were performed with at least three replicates per experimental group. Unpaired t test, two-tailed. FIG. 26H: Huh7 cells were implanted subcutaneously into NU/J mice. When tumor size reached about 50 mm^3, mice were intraperitoneally injected vehicle (control) or C86 daily with or without BMS493 treatment intratumorally every 3 days. BMS493 and C86 suppress tumor growth with the combination showing higher suppression than monotherapy. *, P<0.05; **, P<0.01; ***, P<0.001; n.s., not significant.
# Cultured Huh7, Huh1, Hepa 1-6, Hep55, and FS (as indicated in figure legends) tumor cells were detached using 0.25% trypsin (Gibco, catalog #25200056), washed once with 1×PBS, and counted before implantation. 3~6×10^6 tumor cells were implanted subcutaneously (s.c.) into shaved flanks of recipient mice. Tumor dimensions were measured using a caliper starting at the day indicated in the accompanying figure legend and every two to three days thereafter; volume was calculated by using formula Length*Width^2/2. Tumor volumes of 2,000 mm^3, tumor length of 2 cm or tumor ulceration were used as endpoints for survival analyses.
# Compound-86, 97 and 99 powder was dissolved in 20% HPβCD saline (2-Hydroxypropyl)-[…]). Drug was administered i.p. or p.o. starting when tumor volume reached 50-150 mm^3 and repeated every day.
# human HCC lines = assay: Human HCC lines cocultured with pretreated macrophages; assay type: cell-based; details: macrophages exposed to BMS493
# Procedure: (§1) FIGS. 24A-24E: Raldh1-INH blocks tumor supportive functions of monocytes and macrophages. FIG. 24A: Circulating primary human monocytes were collected from donors and cultured with MCSF (50 ng/mL) to generate macrophages. On day 3 of these cultures, DMSO or RA (100 nmol/L) was added to generate control monocyte-derived macrophages (Control-MoDM) or RA monocyte-derived macrophages (RA-MoDM), respectively. On day 7 of these cultures, macrophages were collected for each well after washing with 1×PBS, mixed with Huh7 cells at approximately 50:50 ratio, and the mix injected into the flanks of NU/J mice. Huh7 tumors cells that were not mixed with any macrophages before flank injection served as an additional control. Tumor volume was measured every 2 days (left graph). 19 days after tumor injection, mice were sacrificed and tumor weight (right graph) was measured. […] Three or more independent experiments were performed with at least three replicates per experimental group. Unpaired t test, two-tailed. […] Tumor growth was monitored daily (left graph). 13 days after tumor cell transplantation, mice were sacrificed and tumor weight measured (right graph). […] Three days later, cells were harvested, counted, and stained with PI for FCS analyses. […] Cell proliferation was measured by counting live cell numbers (y-axis). […] 72 hours later, the cells were washed, counted, and analyzed by FCS. […]
# [1] = tested on: macrophages from primary human monocytes; assay: Numbers of live monocyte-derived macrophages in vitro; assay type: cell-based; details: C86 treated TCM or BMS493; three days
# Procedure: as §1
# SNU398 human HCC cells = assay: AldeRed (Aldefluor) assay in SNU398 cells; assay type: cell-based
# Procedure: The AldeRed assay (EMD Millipore) was performed according to manufacturer's instructions to identify cells with ALDH activity. In brief, single-cell suspensions of Huh7, Huh1, SNU449, SNU398, HEP3B, PLC, Hepa 1-6, Hep55, and AL458A cultured cells or single-cell suspension generated from enzymatic digestion of tumors generated from transplantation of these cells in mice (as indicated in figure legends) were incubated with a fluorescent and non-toxic ALDH substrate (AldeRed 588-A); the fluorescent product accumulates in cells proportional to their ALDH activity. The amount of fluorescence produced is measured by flow cytometry. The ALDH inhibitor diethylaminobenzaldehyde (DEAB, provided with the AldeRed assay kit) was used as a negative control for background fluorescence assessment.
# (§2) The Aldefluor assay has been used to identify and isolate cells with high ALDH activities. This assay is based on the principle that ALDH can convert the ALDH-substrate, Bodipy-aminoacetaldehyde (BAAA) into Bodipy-aminoacetate (BAA) which is retained inside the cells. BAAA is uncharged and can diffuse freely into intact viable cells, however BAA cannot cross the membrane due to its net negative charge, which makes remain in the cells and the assay buffer prevents efflux of the BAA from the cells. Therefore, the amount of BAA fluorescence in cells is proportional to ALDH activity and can be measured using a flow cytometer. A specific inhibitor of ALDH, diethylaminobenzaldehyde (DEAB), is used for background fluorescence control.
# hALDHIA1 = biological target: T1, hALDHIA1 (Homo sapiens, UniProt P00352); assay: hALDH1A1 inhibition (Table 4); assay type: biochemical
# T1 sequence (P00352 1-501): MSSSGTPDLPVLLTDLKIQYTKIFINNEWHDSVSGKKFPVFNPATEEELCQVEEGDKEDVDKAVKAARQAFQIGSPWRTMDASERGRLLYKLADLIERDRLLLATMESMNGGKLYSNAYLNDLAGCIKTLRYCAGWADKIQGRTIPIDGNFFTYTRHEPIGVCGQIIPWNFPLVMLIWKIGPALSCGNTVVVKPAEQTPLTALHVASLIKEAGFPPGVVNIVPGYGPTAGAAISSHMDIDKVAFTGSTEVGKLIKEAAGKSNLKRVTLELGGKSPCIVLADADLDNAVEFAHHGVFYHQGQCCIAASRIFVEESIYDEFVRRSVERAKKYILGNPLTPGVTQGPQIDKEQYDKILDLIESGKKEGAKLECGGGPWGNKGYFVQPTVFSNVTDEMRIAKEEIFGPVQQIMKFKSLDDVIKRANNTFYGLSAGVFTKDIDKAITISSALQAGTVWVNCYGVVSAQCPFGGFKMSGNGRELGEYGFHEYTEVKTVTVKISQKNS
# Procedure: (§3) Compounds ALDH inhibitory effects of C-9125, C-9163, and C-9175 were evaluated in a number of cell lines, including MiaPaCa2 and OV90 cell lines, utilizing the AldeFlour assay described elsewhere herein (Table 4).
# MiaPaCa2 cells = assay: AldeFlour assay in MiaPaCa2 cells; assay type: cell-based; details: Homo sapiens, MIA PaCa-2, read-out: MiaPaCa cells IC50
# Text: as §2, §3
# [2] = tested on: Hepa1-6 (mouse HCC cell line); assay: LC-MS for ATRA in Hepa1-6 cells; details: 1,000 nmol/L, 24 hours
# [3] = tested on: SNU398 (human HCC cell line); assay: LC-MS for ATRA in SNU398 cells; details: C86 100 nmol/L, WIN18446 1,000 nmol/L, 24 hours
smiles,measurement,setting,value
"CC1(C)CC=C(C#Cc2ccccc2)c2cc(/C=C/c3ccc(C(=O)O)cc3)ccc21 [BMS 493, (E)-4-(2-(5,5-dimethyl-8-(phenylethynyl)-5,6-dihydronaphthalen-2-yl)vinyl)benzoic acid, reference compound]",tumor mass and volume,"Huh7 tumors; intraperitoneal administration, compared to a control (FIGS. 12B-12C)",significant reduction in tumor mass and volume
same,increase of tumor cell numbers by RA pre-treated macrophages,human HCC lines,this effect was reversed
same,RA and tumor-CM induced increase in macrophage numbers,[1],reversed
"N#CC1(c2ccccc2)CCN(c2c(C(=O)N[C@H]3CC[C@H](O)CC3)cnc3ccc(F)cc23)CC1 [Compound C-97, 4-(4-cyano-4-phenylpiperidin-1-yl)-6-fluoro-N-((1r,4r)-4-hydroxycyclohexyl)quinoline-3-carboxamide]",tumor mass and volume,Huh7 tumors; C-86 versus C-97 (FIGS. 17A-17B),significant reduction in tumor mass and volume
same,tumor suppressive activity relative to C-86,Huh7 tumors; FIGS. 17A-17B,enhanced tumor suppressive activity as compared to C-86
same,ALDH activity compared to the DMSO control,"SNU398 human HCC cells; SNU398, 1 nM",partial inhibition
same,concentration giving essentially complete inhibition of ALDH,"SNU398 human HCC cells; SNU398, Aldefluor assay",≥ 10 nM
"N#CC1(c2ccccc2)CCN(c2c(C(=O)Nc3cnn(CCO)c3)cnc3ccc(F)cc23)CC1 [Compound C-9175, 4-(4-cyano-4-phenylpiperidin-1-yl)-6-fluoro-N-(1-(2-hydroxyethyl)-1H-pyrazol-4-yl)quinoline-3-carboxamide]",IC50,hALDHIA1,6 nM
same,IC50,MiaPaCa2 cells,12 nM
"N#CC1(c2ccc(-c3c(C(=O)N[C@H]4CC[C@H](O)CC4)cnc4ccc(F)cc34)cc2)CC1 [Compound C-9125, 4-(4-(1-cyanocyclopropyl)phenyl)-6-fluoro-N-((1r,4r)-4-hydroxycyclohexyl)quinoline-3-carboxamide]",IC50,hALDHIA1,7 nM
same,IC50,MiaPaCa2 cells,130 nM
O=C(NCCCCCCCCNC(=O)C(Cl)Cl)C(Cl)Cl [WIN18446],ATRA by LC-MS (RALDH1 inhibition),[2],inhibits both murine and human RALDH1
same,ATRA by LC-MS (RALDH1 inhibition),[3],inhibits both murine and human RALDH1
"N#CC1(c2ccc(-c3c(C(=O)Nc4cnn(CCO)c4)cnc4ccc(F)cc34)cc2)CC1 [Compound C-9163, 4-(4-(1-cyanocyclopropyl)phenyl)-6-fluoro-N-(1-(2-hydroxyethyl)-1H-pyrazol-4-yl)quinoline-3-carboxamide]",IC50,hALDHIA1,4 nM
same,IC50,MiaPaCa2 cells,93 nM
